According to the NIST ThermoML archive (doi:10.1021/je300902c):
Numbers after ± are expanded uncertainties.

Assays:
[1] = Molar enthalpy of transition or fusion; conditions: DSC
[2] = molar enthalpy of vaporization or sublimation; conditions: 298 K; Liquid; DSC

- Molar enthalpy of transition or fusion ([1]; Crystal 2): 3.57 ± 0.62 kJ/mol
- Molar enthalpy of transition or fusion ([1]; Crystal): 66.3 ± 1.4 kJ/mol
- Triple point temperature (Crystal 2, DTA): 340.9 ± 0.5 K
- Normal melting temperature (Crystal, DSC/DTA): 79.2 ± 0.4 °C
- molar enthalpy [2]: 155 ± 15 kJ/mol
Compound: CCCCCCCCCCCCCCCCCCCCCC(=O)O [docosanoic acid]
